From US20050215646A1, “Methods for treating multiple sclerosis and pharmaceutical compositions therefor” (Renovis, Inc., priority 2004, published 2005)

Legend:
FMLP receptor = molecular target: T1, FMLP receptor (Homo sapiens, UniProt P21462); experiment: Migration of CHO-K1 cells expressing the FMLP receptor; format: cell-based; details: 2 hours, FIG. 4
T1 construct: cDNA fragments encompassing chemokine receptor coding regions; expressed in transfected cells; host or cells: CHO-K1 (ATCC CCL-61), transient transfection
T1 sequence (P21462 1-350): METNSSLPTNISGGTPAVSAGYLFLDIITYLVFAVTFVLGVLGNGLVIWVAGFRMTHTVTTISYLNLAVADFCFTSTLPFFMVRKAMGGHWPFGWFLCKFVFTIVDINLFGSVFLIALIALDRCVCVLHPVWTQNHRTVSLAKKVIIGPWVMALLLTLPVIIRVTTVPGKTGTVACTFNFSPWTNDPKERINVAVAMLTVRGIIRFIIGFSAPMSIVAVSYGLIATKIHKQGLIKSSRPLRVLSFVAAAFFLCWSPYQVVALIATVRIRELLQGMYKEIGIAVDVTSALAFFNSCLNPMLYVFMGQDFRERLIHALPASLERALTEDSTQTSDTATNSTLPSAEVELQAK
Description: (§1) CHO-K1 cells were obtained from American Type Culture Collection (CCL-61) and cultured in Ham's F12 media supplemented with 10% heat inactivated FBS and 100 μg/ml penicillin/streptomycin. cDNA fragments encompassing chemokine receptor coding regions were obtained from cDNAs synthesized from HL-60 cells and/or human peripheral blood mononuclear cells by the polymerase chain reaction. Expression constructs of chemokine receptors were generated by cloning PCR fragments into expression vector pEF6/V5-TOPO (K9610-20, Invitrogen). Transient transfections were carried out with Fugene 6 transfection reagent (1814443, Roche Applied Science) according to the manufacturer's instructions.
(§2) The CHO-chemokine receptor cells were used in migration assays 36 hours following transfection. In vitro migration assays were performed using a Neuroprobe Blindwell migration apparatus (AA12, Neuro Probe, Inc./16008 Industrial Drive, Gaithersburg, Md. 20877) according to the manufacturer's instructions with slight modifications. […]
(§3) Following the migration assays, migrated cells that had adhered to the underside of the filter were quantitated according to the manufacturer's instructions. […] Stained filtered were mounted onto microscope slides and migrated cells in each well were manually counted under 40× magnification.

CXCR6 = molecular target: T2, CXCR6 (Homo sapiens, UniProt O00574); experiment: Migration of CHO-K1 cells expressing CXCR6; format: cell-based; details: CHO-K1 cells expressing CXCR6, 2 hours; FIG. 3
T2 construct: cDNA fragments encompassing chemokine receptor coding regions; expressed in transfected cells; host or cells: CHO-K1 (ATCC CCL-61), transient transfection
T2 sequence (O00574 whole entry, the tested form may be a part): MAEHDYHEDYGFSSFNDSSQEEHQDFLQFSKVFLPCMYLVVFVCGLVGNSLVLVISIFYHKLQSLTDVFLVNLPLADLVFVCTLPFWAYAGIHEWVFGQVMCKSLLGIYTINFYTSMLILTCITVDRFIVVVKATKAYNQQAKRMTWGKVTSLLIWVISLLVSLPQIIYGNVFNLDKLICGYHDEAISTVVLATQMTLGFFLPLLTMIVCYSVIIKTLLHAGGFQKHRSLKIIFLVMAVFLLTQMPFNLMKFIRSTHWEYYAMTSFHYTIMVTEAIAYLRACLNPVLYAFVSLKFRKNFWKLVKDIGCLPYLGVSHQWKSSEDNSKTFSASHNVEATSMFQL
Description: as §1, §2, §3

CX3CR1 = molecular target: T3, CX3CR1 (Homo sapiens, UniProt P49238); experiment: Migration of CHO-K1 cells expressing CX3CR1; format: cell-based; details: CHO-K1 cells expressing CX3CR1, 2 hours; FIG. 3
T3 construct: cDNA fragments encompassing chemokine receptor coding regions; expressed in transfected cells; host or cells: CHO-K1 (ATCC CCL-61), transient transfection
T3 sequence (P49238 1-355): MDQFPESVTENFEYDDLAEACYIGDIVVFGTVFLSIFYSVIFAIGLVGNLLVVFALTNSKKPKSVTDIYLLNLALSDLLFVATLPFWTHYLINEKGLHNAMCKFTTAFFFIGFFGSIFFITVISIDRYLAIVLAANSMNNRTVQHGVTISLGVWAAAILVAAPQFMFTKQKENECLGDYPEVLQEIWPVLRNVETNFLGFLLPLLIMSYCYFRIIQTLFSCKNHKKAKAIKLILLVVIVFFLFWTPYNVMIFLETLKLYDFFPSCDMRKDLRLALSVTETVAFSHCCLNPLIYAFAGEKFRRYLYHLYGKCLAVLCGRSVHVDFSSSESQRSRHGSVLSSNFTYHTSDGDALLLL
Description: as §1, §2, §3

[1] = test system: C57BL/6J mice model of EAE; experiment: C57BL/6J mice model of experimental autoimmune encephalomyelitis (EAE), prevention paradigm; format: in vivo, mouse
CXCR2 = molecular target: T4, CXCR2 (Homo sapiens, UniProt P25025); experiment: Migration of CHO-K1 cells expressing CXCR2; format: cell-based; details: CHO-K1 cells expressing CXCR2, 2 hours; FIG. 3
T4 construct: cDNA fragments encompassing chemokine receptor coding regions; expressed in transfected cells; host or cells: CHO-K1 (ATCC CCL-61), transient transfection
T4 sequence (P25025 1-360): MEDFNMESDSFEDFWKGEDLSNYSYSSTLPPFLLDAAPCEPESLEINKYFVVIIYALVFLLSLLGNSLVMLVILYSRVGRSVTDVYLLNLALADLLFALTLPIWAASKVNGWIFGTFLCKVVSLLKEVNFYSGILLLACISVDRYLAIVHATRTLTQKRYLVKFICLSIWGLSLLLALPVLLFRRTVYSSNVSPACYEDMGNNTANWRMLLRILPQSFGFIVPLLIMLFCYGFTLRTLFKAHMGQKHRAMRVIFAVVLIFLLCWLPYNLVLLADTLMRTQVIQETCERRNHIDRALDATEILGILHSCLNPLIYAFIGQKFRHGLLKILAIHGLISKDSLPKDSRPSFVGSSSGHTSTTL
Description: as §1, §2, §3

CXCR3 = molecular target: T5, CXCR3 (Homo sapiens, UniProt P49682); experiment: Migration of CHO-K1 cells expressing CXCR3; format: cell-based; design: cDNA fragments encompassing chemokine receptor coding regions; expressed in transfected cells; host or cells: CHO-K1 (ATCC CCL-61), transient transfection; details: CHO-K1 cells expressing CXCR3, 2 hours; FIG. 3
T5 sequence (P49682 1-368): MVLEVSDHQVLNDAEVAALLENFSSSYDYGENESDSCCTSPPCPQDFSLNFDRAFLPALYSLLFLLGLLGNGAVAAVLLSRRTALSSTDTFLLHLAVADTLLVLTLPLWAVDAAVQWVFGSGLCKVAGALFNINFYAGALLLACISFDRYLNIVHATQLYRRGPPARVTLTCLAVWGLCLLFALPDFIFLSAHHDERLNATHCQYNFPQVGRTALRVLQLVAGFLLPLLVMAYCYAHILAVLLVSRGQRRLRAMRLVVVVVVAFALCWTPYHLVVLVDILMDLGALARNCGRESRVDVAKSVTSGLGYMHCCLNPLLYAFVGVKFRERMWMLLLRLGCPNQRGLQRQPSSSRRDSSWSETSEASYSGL
Description: as §1, §2, §3

induction of cell migration (FMLP receptor): did not induce migration
induction of cell migration (CXCR6): induced migration
induction of cell migration (CX3CR1): induced migration
induction of cell migration (CXCR2): induced migration
induction of cell migration (CXCR3): induced migration
SMILES: CC(C)(C)c1cc(/C=[N+](\[O-])C(C)(C)C)cc(C(C)(C)C)c1O [Compound 1, α-(4-hydroxy-3,5-di-tert-butylphenyl)-N-tert-butylnitrone]
reversal of EAE-associated weight loss ([1]; 10 mg/kg oral once a day, FIG. 10): significant effect on reversal
tissue infiltration score (spinal cord, H&E) ([1]; 10 mg/kg vs Vehicle, Day 26, failing to reach statistical significance (p=0.0513), FIG. 11): lower infiltration score than control mice
maximum disease score ([1]; oral gavage once a day from 7 days before induction, Days 9-26, FIG. 8): significant effect
cumulative disease score ([1]; oral gavage once a day from 7 days before induction, Days 9-26, FIG. 9): significant effect
disease severity (average clinical scores) ([1]; oral gavage once a day, 0.3, 1, 3, 10 mg/kg from 7 days before induction, vs Vehicle, FIG. 7): significant reduction
